Assay results as given in ChEMBL document CHEMBL1148364, “Structure-based design, synthesis, and structure-activity relationship studies of novel non-nucleoside adenosine deaminase inhibitors” (J Med Chem, 2004).

How the values were obtained:
Adenosine deaminase = target: T1, Adenosine deaminase (Homo sapiens, UniProt P00813)
T1 sequence (P00813 whole entry): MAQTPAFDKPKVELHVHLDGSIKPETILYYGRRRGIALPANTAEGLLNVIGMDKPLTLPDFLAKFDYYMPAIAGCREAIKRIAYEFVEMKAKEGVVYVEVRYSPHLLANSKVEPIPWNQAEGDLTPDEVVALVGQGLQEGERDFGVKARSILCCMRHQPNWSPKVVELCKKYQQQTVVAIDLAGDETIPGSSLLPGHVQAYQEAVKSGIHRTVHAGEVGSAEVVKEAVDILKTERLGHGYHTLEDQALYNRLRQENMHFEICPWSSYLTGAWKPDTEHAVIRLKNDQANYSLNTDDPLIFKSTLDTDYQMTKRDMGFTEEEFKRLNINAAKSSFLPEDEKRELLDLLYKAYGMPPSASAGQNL
Description: Inhibition of human adenosine deaminase (ADA)

[1] = Oral bioavailability in rats at 10 mg/kg; assay type: ADME, organism-based; conditions: rat, in vivo
[2] = AUC 0-8 hr value in rats at 10 mg/kg; assay type: ADME, organism-based; parameters: time < 8 hr, dose 10 mg/kg; conditions: rat, plasma
[3] = Cmax value in rats at 10 mg/kg; assay type: ADME, organism-based; parameters: dose 10 mg/kg; conditions: rat, in vivo

Row | SMILES | Ki (Adenosine deaminase) [nM] | also measured
1 | NC(=O)c1cn([C@@H](CO)CCn2ccc3ccc(OCCCc4ccc(Cl)cc4)cc32)cn1 | 13 | 
2 | CCCCCCOc1ccc2ccn(CC[C@H](CO)n3cnc(C(N)=O)c3)c2c1 | 55 | 
3 | NC(=O)c1cn([C@@H](CO)CCn2ccc3ccc(OCCCCc4ccccc4)cc32)cn1 | 12 | 
4 | NC(=O)c1cn([C@@H](CO)CCn2ccc3ccc(NC(=O)CCCCCc4ccccc4)cc32)cn1 | 91 | 
5 | COc1ccc(CCC(=O)Nc2ccc3ccn(CC[C@H](CO)n4cnc(C(N)=O)c4)c3c2)cc1 | 57 | 
6 | CC(=O)Nc1ccc2ccn(CC[C@H](CO)n3cnc(C(N)=O)c3)c2c1 | 1300 | 
7 | Cc1ccc(CCCC(=O)Nc2ccc3ccn(CC[C@H](CO)n4cnc(C(N)=O)c4)c3c2)cc1 | 34 | 
8 | Cc1ccc(CCC(=O)Nc2ccc3ccn(CC[C@H](CO)n4cnc(C(N)=O)c4)c3c2)cc1 | 38 | 
9 | Cn1cc(CC[C@H](CO)n2cnc(C(N)=O)c2)c2cc(OCCCc3ccc(Cl)cc3)ccc21 | 4.9 | bioavailability [1]: 10%; AUC(0-t) at 8 h [2]: 260 ng·h/mL; Cmax [3]: 210 ng/mL
10 | CCCCOc1ccc2ccn(CC[C@H](CO)n3cnc(C(N)=O)c3)c2c1 | 240 | 
11 | CCCCCCOc1ccc2c(c1)c(CC[C@H](CO)n1cnc(C(N)=O)c1)cn2C | 13 | 
12 | NC(=O)c1cn([C@@H](CO)CCn2ccc3ccc(NC(=O)CCc4cccnc4)cc32)cn1 | 17 | 
13 | CCCCCC(=O)Nc1ccc2ccn(CC[C@H](CO)n3cnc(C(N)=O)c3)c2c1 | 24 | 
14 | NC(=O)c1cn([C@@H](CO)CCn2ccc3ccc(OCCCc4ccccc4)cc32)cn1 | 17 | 
15 | NC(=O)c1cn([C@@H](CO)CCn2ccc3cc(OCCCc4ccccc4)ccc32)cn1 | 1900 | 
16 | CCCCCCOc1ccc2c(ccn2CC[C@H](CO)n2cnc(C(N)=O)c2)c1 | 6200 | 
